Test [1] addresses Sodium-dependent serotonin transporter (Homo sapiens, UniProt P31645).
The target in test [2] is T1, Alpha-2A adrenergic receptor (Homo sapiens, UniProt P08913).
T1 sequence (P08913 whole entry): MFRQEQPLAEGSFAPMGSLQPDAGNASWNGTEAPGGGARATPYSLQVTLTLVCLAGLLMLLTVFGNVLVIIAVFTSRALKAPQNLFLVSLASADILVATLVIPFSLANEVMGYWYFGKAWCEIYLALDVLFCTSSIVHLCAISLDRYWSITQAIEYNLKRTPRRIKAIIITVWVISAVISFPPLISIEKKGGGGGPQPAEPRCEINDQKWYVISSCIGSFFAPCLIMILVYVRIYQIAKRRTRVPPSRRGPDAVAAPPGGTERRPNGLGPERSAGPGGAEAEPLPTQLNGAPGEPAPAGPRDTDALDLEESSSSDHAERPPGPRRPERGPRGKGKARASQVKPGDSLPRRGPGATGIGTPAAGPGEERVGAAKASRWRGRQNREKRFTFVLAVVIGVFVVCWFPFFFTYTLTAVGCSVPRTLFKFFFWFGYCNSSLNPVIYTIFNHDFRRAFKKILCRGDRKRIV
It counts as functional, cell-based.

Test [3] deals with 5-hydroxytryptamine receptor 2B (Homo sapiens, UniProt P41595). It counts as functional, cell-based.
The target in test [4] is Motilin receptor (Homo sapiens, UniProt O43193).
Test [5] addresses T2, Type-1 angiotensin II receptor (Homo sapiens, UniProt P30556).
T2 sequence (P30556 whole entry): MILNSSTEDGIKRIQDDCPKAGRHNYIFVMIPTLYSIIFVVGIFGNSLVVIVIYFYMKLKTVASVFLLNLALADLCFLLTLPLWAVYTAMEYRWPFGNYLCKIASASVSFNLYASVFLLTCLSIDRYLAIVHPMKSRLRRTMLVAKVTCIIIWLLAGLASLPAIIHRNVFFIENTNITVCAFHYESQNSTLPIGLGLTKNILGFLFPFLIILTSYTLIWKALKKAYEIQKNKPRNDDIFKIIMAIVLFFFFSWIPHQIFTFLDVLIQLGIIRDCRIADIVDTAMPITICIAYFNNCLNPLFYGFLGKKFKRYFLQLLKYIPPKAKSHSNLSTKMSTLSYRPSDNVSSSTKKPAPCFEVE

Test [6] addresses Glutamate receptor ionotropic, NMDA 1 (Rattus norvegicus, UniProt P35439).
The target of test [7] is Histamine H1 receptor (Homo sapiens, UniProt P35367).
The target of test [8] is T1, Alpha-2A adrenergic receptor. It counts as functional, cell-based. The source holds these as a separate data set.
Test [9] addresses Kappa-type opioid receptor (Homo sapiens, UniProt P41145).
Test [10] concerns the target Neuronal acetylcholine receptor subunit alpha-4 (Homo sapiens, UniProt P43681).
Test [11] deals with Beta-1 adrenergic receptor (Homo sapiens, UniProt P08588). It counts as functional.
The target in test [12] is T3, Neuropeptide Y receptor type 1 (Homo sapiens, UniProt P25929).
T3 sequence (P25929 whole entry): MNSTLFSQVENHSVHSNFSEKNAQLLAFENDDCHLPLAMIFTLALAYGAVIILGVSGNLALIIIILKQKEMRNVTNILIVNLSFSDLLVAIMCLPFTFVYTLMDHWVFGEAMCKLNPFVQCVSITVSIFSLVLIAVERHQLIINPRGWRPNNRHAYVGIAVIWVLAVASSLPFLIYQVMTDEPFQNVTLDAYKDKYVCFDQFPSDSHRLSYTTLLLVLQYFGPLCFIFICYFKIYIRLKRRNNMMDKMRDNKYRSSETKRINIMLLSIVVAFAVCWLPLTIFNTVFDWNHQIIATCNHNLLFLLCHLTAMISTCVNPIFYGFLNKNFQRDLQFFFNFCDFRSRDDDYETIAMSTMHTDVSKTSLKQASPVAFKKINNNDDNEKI

Test [13] deals with Histamine H3 receptor (Homo sapiens, UniProt Q9Y5N1).
Test [14] has as its target Bile salt export pump (Homo sapiens, UniProt O95342). It counts as functional.
The target of test [15] is T4, Mu-type opioid receptor (Homo sapiens, UniProt P35372).
For test [16], the target named is 3',5'-cyclic-AMP phosphodiesterase 4A (Homo sapiens, UniProt P27815). It counts as functional.
In test [17] the target is Prostaglandin G/H synthase 1 (Homo sapiens, UniProt P23219). It counts as functional.
The target in test [18] is Prothrombin (Homo sapiens, UniProt P00734). It counts as functional.
In test [19] the target is T4, Mu-type opioid receptor. The source holds these as a separate data set.
Test [20] addresses cGMP-inhibited 3',5'-cyclic phosphodiesterase 3A (Homo sapiens, UniProt Q14432). It counts as functional.
Test [21] concerns the target T5, Thromboxane A2 receptor (Homo sapiens, UniProt P21731).
T5 sequence (P21731 whole entry): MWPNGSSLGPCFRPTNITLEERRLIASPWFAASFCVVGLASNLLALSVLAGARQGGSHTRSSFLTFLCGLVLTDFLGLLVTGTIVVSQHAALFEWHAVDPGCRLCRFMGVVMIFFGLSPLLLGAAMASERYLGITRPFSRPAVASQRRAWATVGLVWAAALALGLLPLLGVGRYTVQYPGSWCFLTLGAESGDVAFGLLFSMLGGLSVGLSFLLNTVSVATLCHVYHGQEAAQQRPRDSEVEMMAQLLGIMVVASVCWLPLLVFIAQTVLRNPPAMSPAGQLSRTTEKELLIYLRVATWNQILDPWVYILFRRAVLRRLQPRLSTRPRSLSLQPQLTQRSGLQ
It counts as functional, cell-based.
Further: assay procedure not described here.

Sequence of Neuronal acetylcholine receptor subunit alpha-4 (P43681 whole entry): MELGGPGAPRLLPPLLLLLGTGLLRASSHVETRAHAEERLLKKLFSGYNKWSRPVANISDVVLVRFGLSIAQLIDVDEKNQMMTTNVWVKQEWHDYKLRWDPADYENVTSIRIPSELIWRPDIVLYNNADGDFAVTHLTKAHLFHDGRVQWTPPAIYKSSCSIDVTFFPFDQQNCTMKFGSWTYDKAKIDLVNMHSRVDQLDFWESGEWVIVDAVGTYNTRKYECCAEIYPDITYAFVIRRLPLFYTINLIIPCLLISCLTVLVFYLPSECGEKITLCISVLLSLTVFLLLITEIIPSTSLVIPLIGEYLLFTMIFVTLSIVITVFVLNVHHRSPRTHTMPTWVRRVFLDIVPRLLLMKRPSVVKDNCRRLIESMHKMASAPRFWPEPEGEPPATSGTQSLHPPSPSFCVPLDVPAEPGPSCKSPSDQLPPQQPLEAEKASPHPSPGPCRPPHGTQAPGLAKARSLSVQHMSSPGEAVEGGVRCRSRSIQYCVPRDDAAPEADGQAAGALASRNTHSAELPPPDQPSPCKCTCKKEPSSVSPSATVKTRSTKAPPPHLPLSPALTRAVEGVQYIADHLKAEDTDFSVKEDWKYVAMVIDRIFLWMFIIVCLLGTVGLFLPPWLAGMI
Sequence of Kappa-type opioid receptor (P41145 whole entry): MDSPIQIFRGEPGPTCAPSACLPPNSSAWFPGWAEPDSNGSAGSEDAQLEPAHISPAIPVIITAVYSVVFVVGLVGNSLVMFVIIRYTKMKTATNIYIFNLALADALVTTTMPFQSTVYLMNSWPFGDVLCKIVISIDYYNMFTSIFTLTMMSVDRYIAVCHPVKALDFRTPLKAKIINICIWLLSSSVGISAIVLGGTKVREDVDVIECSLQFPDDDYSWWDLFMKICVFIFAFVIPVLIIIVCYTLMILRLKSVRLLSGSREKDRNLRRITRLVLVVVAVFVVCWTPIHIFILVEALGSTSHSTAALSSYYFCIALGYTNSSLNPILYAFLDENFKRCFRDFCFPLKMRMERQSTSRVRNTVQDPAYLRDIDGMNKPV
Sequence of 5-hydroxytryptamine receptor 2B (P41595 whole entry): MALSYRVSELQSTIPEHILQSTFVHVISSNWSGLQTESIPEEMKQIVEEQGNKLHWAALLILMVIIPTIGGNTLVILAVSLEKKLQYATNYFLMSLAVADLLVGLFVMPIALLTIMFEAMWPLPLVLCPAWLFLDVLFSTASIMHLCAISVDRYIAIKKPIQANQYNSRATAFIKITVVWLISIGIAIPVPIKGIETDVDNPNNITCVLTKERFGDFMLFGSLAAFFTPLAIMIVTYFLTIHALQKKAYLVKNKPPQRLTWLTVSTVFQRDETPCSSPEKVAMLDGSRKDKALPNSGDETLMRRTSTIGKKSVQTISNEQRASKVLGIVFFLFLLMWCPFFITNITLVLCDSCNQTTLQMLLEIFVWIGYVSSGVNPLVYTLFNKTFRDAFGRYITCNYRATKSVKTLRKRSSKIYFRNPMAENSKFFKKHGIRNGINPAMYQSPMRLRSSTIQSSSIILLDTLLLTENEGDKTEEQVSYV
Sequence of Beta-1 adrenergic receptor (P08588 whole entry): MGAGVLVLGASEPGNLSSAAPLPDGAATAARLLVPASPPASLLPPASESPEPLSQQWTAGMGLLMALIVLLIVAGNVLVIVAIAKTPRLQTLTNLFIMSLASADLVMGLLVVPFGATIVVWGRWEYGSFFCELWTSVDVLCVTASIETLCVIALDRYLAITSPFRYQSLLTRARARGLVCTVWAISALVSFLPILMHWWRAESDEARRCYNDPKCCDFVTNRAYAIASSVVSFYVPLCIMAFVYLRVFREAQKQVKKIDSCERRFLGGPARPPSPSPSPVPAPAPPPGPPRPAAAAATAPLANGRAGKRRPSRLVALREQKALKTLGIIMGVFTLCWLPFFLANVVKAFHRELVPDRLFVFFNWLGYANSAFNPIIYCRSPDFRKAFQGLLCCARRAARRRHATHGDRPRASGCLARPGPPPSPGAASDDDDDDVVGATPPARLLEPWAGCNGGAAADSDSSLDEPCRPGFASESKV
Sequence of Bile salt export pump (O95342 whole entry): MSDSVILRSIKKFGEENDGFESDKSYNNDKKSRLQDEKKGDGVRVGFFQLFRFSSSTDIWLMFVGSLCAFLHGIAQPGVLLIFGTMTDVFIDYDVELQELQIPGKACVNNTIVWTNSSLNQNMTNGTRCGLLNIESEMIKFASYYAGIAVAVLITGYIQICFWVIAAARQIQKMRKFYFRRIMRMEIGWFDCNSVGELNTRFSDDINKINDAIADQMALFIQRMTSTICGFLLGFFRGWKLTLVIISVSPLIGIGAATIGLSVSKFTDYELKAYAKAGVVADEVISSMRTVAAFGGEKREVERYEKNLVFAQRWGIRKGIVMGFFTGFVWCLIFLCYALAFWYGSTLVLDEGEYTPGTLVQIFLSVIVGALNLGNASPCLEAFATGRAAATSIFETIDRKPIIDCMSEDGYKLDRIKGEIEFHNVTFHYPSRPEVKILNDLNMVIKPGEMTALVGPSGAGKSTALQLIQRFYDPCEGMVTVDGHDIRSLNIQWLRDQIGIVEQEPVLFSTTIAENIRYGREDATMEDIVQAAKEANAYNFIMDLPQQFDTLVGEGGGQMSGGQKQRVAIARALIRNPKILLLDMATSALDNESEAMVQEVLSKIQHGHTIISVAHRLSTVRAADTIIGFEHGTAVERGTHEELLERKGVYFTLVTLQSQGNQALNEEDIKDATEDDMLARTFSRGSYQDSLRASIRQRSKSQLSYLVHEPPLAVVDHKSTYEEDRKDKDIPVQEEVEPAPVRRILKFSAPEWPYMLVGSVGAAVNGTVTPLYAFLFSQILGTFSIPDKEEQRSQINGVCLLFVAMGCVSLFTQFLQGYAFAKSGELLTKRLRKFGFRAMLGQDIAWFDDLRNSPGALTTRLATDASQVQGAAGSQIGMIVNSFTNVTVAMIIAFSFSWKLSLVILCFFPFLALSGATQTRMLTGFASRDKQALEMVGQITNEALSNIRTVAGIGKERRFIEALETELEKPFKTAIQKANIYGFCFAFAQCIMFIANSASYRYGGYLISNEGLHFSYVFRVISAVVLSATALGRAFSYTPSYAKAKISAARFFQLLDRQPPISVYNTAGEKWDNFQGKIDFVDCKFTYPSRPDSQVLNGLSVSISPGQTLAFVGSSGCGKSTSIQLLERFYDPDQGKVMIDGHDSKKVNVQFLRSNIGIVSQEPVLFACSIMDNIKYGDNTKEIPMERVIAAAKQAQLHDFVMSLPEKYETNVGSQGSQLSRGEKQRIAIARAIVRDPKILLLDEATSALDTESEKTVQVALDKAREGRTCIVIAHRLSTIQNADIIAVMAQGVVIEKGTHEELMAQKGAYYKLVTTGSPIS
T4 sequence (P35372 whole entry): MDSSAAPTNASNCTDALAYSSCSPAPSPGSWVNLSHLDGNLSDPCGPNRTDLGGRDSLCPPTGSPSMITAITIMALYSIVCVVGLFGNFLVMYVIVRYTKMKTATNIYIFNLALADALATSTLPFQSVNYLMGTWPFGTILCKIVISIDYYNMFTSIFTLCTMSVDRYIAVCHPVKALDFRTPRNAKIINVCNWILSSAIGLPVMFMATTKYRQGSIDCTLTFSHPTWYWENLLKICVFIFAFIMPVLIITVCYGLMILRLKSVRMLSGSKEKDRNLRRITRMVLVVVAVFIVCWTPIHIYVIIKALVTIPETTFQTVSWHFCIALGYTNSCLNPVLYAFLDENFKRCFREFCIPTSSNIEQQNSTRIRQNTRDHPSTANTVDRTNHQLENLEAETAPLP
Sequence of Histamine H3 receptor (Q9Y5N1 whole entry): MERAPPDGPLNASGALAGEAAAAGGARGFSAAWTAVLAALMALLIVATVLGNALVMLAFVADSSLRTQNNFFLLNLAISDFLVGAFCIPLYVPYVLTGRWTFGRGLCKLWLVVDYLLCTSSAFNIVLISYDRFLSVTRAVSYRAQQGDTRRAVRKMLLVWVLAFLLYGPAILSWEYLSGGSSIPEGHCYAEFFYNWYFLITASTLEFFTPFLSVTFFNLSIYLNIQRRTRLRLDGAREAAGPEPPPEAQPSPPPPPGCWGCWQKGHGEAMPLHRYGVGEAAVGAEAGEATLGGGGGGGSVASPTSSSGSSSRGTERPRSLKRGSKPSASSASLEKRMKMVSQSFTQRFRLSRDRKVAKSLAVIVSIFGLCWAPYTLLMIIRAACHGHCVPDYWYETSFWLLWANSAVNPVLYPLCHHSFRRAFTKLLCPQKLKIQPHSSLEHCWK
Sequence of Motilin receptor (O43193 whole entry): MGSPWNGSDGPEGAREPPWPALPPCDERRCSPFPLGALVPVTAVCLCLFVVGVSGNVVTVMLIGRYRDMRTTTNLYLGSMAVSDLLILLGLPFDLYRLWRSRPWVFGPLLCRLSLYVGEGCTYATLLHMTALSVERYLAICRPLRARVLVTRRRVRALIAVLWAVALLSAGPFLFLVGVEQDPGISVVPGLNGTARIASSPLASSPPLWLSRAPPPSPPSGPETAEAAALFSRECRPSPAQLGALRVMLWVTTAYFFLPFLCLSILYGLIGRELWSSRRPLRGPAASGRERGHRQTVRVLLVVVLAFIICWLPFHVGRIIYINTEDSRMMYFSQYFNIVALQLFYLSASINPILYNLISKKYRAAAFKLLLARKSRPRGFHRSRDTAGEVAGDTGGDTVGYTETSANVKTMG

For orientation: AC50 means the midpoint of the concentration-response curve, whichever way the signal moves. As for `CN(C)CCc1c[nH]c2ccc(CS(=O)(=O)N3CCCC3)cc12` [ALMOTRIPTAN], the AC50 in test [1] was more than 30 µM; in [2] it was more than 30 µM; in test [3], 11 µM; in [4], more than 30 µM; in [5] it was more than 30 µM; in test [6], more than 30 µM. Besides, the AC50 in test [7], in test [8], in [9], in test [10], in test [11] and in test [12] was more than 30 µM in each case. In addition, the AC50 was more than 30 µM in test [13] and more than 300 µM in test [14].

In the case of `CC[N+](CC)(CCNC(=O)C(=O)NCC[N+](CC)(CC)Cc1ccccc1Cl)Cc1ccccc1Cl` [AMBENONIUM], the half-maximal activity concentration (AC50) in test [1] was 6.1 µM; in test [2], more than 30 µM; in test [3], more than 30 µM; in test [4], more than 30 µM; in [5] it was more than 30 µM; in [6], more than 30 µM. The AC50 in test [7] is more than 30 µM; in test [8], more than 30 µM; in test [9] it was 0.7 µM; in [10], more than 30 µM; in test [11], more than 30 µM; in [12], more than 30 µM. For the same compound, the AC50 in test [13] is 21 µM; in test [14], more than 300 µM.

`CN1CC2c3ccccc3Oc3ccc(Cl)cc3C2C1` (stereo not drawn) [ASENAPINE]: the AC50 was 0.079 µM in [2]; more than 30 µM in [3]; more than 30 µM in test [4]; more than 30 µM in test [5]; more than 30 µM in test [8]; more than 30 µM in [10]. Moreover, the half-maximal activity concentration (AC50) is more than 30 µM in [11], more than 30 µM in [15], more than 30 µM in test [13] and 270 µM in test [14].

On to `CN(C)CCOC(c1ccc(Cl)cc1)c1ccccn1` (stereo not drawn) [CARBINOXAMINE], for which the AC50 in test [1] was 3 µM; in test [2], more than 30 µM; in test [3], more than 30 µM; in [4], more than 30 µM; in test [5], more than 30 µM; in test [6], more than 30 µM. In addition, the AC50 in [7] was 0.11 µM; in test [8], more than 30 µM; in test [9], more than 30 µM; in [10], more than 30 µM; in test [12], more than 30 µM; in [13], 3.5 µM. The AC50 in test [14] was more than 300 µM.

As for `C[C@H](CCC(=O)O)[C@H]1CC[C@H]2[C@@H]3[C@H](O)C[C@@H]4C[C@H](O)CC[C@]4(C)[C@H]3CC[C@]12C` [CHENODIOL], the concentration at half-maximal activity (AC50) was 3 µM in test [2]; more than 30 µM in test [3]; more than 30 µM in test [4]; more than 30 µM in test [5]; more than 30 µM in test [7]; more than 30 µM in test [8]. Also, the AC50 in test [10] is more than 30 µM; in test [11], more than 30 µM; in [15], more than 30 µM; in test [13], more than 30 µM; in [14] it was 13 µM.

For `CC(C)/N=c1\cc2n(-c3ccc(Cl)cc3)c3ccccc3nc-2cc1Nc1ccc(Cl)cc1` [CLOFAZIMINE], the AC50 in test [1] is 20 µM; in [2], more than 30 µM; in test [3], more than 30 µM; in test [4], more than 30 µM; in test [5] it was more than 30 µM; in test [6], 22 µM. For the same compound, the AC50 was 8.56 µM in test [7]; more than 30 µM in test [8]; 14 µM in test [9]; more than 30 µM in test [10]; more than 30 µM in test [11]; more than 30 µM in test [12]. Also, the AC50 in test [13] was more than 30 µM; in test [14], 12 µM.

In the case of `CCOC(=O)Nc1ccc(NCc2ccc(F)cc2)nc1N` [FLUPIRTINE], the AC50 in test [1] was more than 30 µM; in test [2], 23 µM; in test [3], more than 30 µM; in [4], more than 30 µM; in test [5], more than 30 µM; in [6], more than 30 µM. The concentration at half-maximal activity (AC50) in [7] is more than 30 µM; in test [8] it was more than 30 µM; in test [9] it was 18 µM; in [10], more than 30 µM; in test [11], more than 30 µM; in test [12] it was more than 30 µM. Further, the concentration at half-maximal activity (AC50) in test [13] was more than 30 µM; in [14], 85 µM.

For the compound `N[C@@H](Cc1cc(I)c(Oc2cc(I)c(O)c(I)c2)c(I)c1)C(=O)O` [LEVOTHYROXINE], the AC50 in [1], in test [2], in test [3], in test [4], in [5] and in test [6] was more than 30 µM throughout. Moreover, the AC50 in [7], in [8], in [9], in test [10], in [11] and in [12] was more than 30 µM throughout. The AC50 in test [13] was more than 30 µM; in test [14] it was more than 300 µM.

Regarding `CC(=O)NC[C@H]1CN(c2ccc(N3CCOCC3)c(F)c2)C(=O)O1` [LINEZOLID], the AC50 in test [2], in [5], in test [6], in test [7], in [8] and in [9] was more than 30 µM throughout. The AC50 in test [10] was more than 30 µM; in test [11] it was more than 30 µM; in test [12], more than 30 µM; in test [13], more than 30 µM; in [14], more than 300 µM.

On to `O=NN(CCCl)C(=O)NC1CCCCC1` [LOMUSTINE], for which the AC50 was 25.7 µM in [16]; more than 30 µM in test [17]; more than 30 µM in [18]; more than 30 µM in test [19]; more than 30 µM in [20]; more than 300 µM in test [14]. Besides, the AC50 in [21] was more than 30 µM.

Regarding `c1cnc2cc3c(cc2n1)[C@@H]1CNC[C@H]3C1` [VARENICLINE], the concentration at half-maximal activity (AC50) in test [1], in test [2], in test [3], in test [4], in test [5] and in test [7] was more than 30 µM throughout. The AC50 in [8] was more than 30 µM; in test [11], more than 30 µM; in test [15], more than 30 µM; in test [13], more than 30 µM; in test [14], more than 300 µM.

For the origin of these results see ChEMBL document CHEMBL5291721, “A preclinical secondary pharmacology resource illuminates target-adverse drug reaction associations of marketed drugs” (Nat Commun, 2023).
